# Legend:
# T cell proliferation = test system: T cell proliferation; set-up: method as in PMID 29254508; conditions: cited from earlier work
# [1] = test system: CT26, LLC, B16, and 4T1 tumors; set-up: method as in PMID 29254508; conditions: B16, 4T1; cited from earlier work
# recombinant human ARG1 = target: T1, recombinant human ARG1 (Homo sapiens, UniProt P05089); assay: Recombinant arginase activity assay, hARG1; type: biochemical; conditions: 1 h at 37°C, pH 7.4, 10 mM L-arginine, urea detection; read-out: Inhibition of recombinant hARG1: IC50
# T1 construct: made in house; host or cells: E. coli
# T1 sequence (P05089 1-322): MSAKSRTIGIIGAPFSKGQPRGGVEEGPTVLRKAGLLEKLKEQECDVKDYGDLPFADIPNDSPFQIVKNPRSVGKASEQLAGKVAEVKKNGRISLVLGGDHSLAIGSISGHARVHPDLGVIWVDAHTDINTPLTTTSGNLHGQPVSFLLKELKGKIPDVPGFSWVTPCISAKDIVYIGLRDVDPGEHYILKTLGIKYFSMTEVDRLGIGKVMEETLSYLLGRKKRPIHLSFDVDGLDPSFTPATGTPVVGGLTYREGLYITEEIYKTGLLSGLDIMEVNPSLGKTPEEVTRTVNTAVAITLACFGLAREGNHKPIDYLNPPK
# Experimental: (§1) The inhibitory activity towards hARG1 and hARG2 enzymes was assessed using recombinant enzymes biosynthesized using a prokaryotic expression system (E. coli) and purified by fast protein liquid chromatography (FPLC). Briefly, recombinant enzymes were incubated with the tested compounds for 1 h at 37°C in the reaction buffer (100 mM sodium phosphate buffer, 130 mM NaCl, 1 mg/mL BSA, pH 7.4) containing substrate (10 mM L-arginine hydrochloride) and cofactor (200 µM MnCl2). The assay is based on the detection of urea, which is generated during the conversion of L-arginine into L-ornithine catalyzed by arginases. To visualize the product, we adding a mixture of reagent A (4 mM oPA, 50 mM boric acid, 1 M sulfuric acid, 0.03% Brij-35) and reagent B (4 mM NED, 50 mM boric acid, 1 M sulfuric acid, 0.03% Brij-35) in equal proportions. The absorbance was measured at 515 nm. The urea production in the absence of any tested compound was considered as maximal enzyme activity. The absorbance in the absence of arginase (background) was considered as zero activity. Two reference compounds OAT-81 (ABH, no. 222638-65-5) and OAT-90 (2-amino-6-borono-2-(2-(3-(2,4-dichlorophenyl)propyloamino)ethyl) hexanoic acid, and two novel inhibitors OAT-1617 and OAT-1746 (the last three synthesized at OncoArendi Therapeutics) were tested. Normalized values were analyzed using GraphPad Prism 7.0 software and the IC50 values were determined.
# recombinant human ARG2 = target: T2, recombinant human ARG2 (Homo sapiens, UniProt P78540); assay: Recombinant arginase activity assay, hARG2; type: biochemical; conditions: 1 h at 37°C, pH 7.4, 10 mM L-arginine, urea detection; read-out: Inhibition of recombinant hARG2: IC50
# T2 construct: made in house; host or cells: E. coli
# T2 sequence (P78540 23-354): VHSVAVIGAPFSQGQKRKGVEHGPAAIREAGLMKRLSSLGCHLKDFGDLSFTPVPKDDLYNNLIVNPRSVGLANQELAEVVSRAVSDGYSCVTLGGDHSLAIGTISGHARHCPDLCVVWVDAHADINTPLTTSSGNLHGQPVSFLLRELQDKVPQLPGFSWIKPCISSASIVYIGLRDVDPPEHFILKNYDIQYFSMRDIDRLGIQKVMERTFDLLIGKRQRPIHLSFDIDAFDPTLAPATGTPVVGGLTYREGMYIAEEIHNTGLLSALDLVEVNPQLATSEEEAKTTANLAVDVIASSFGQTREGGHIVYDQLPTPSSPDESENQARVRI
# Experimental: as §1
# U87-MG glioma cells = assay: Matrigel invasion assay, U87-MG co-cultured with BV2 microglia; type: cell-based, human
# Experimental: (§2) BV2 cells were plated onto a 24-well plate at the density of 4×10^4. After 24 h, the invasion assay was performed with tissue culture inserts (6.5 mm Transwell® with 8.0 µm Pore Polycarbonate Membrane Insert, Corning, NY, USA) coated with the Growth Factor Reduced Matrigel™ Matrix (BD Biosciences, San Diego. CA, USA). The Matrigel™ Matrix (50 µL of 1 mg/mL stock solution diluted in fresh DMEM) was dried under sterile conditions (37°C) for 5–6 h. The medium in BV2 cultures was replaced with fresh one 1 h before seeding glioblastoma cells onto the inserts, then LN18 and U87 glioblastoma cells were seeded at 2×10^4/insert on Matrigel-covered membranes in a serum-reduced medium (2% FBS). Untreated glioblastoma cells co-cultured with or without BV2 cells served as positive and negative controls, respectively. Cells were treated with the arginase-1 inhibitors OAT-90, OAT-1617 and OAT-1746 solved in PBS. The cultures were kept in incubator at 37°C with humidified air containing 5% CO2. After 18 h cells were fixed in ice-cold methanol and cell nuclei stained with DAPI (4′,6-Diamidino-2-Phenylindole; 1 µg/mL, Sigma). The membranes from Transwell® inserts were cut out and images were acquired using a fluorescence microscope (Leica DM4000B, 10x lens) from the 5 independent fields (bottom; top; left; right side and the middle). Numbers of invading cells were counted using the ImageJ software (NIH, Bethesda, MD, USA). All experiments were performed three times, in duplicates.
# LN18 glioma cells = assay: Matrigel invasion assay, LN18 co-cultured with BV2 microglia; type: cell-based, human; conditions: 11 µM, co-culture with BV2, 18 h
# Experimental: as §2, with “After 18 h cells were fixed in ice-cold methanol and cell nuclei stained with DAPI (4′,6-Diamidino-2-Phenylindole; 1 µg/mL, Sigma).” left out, “All experiments were performed three times, in duplicates.” left out
Compound,myeloid cell-mediated suppression of T cell proliferation in vitro (T cell proliferation),tumor growth in mouse models of non-CNS tumors [1],IC50 (recombinant human ARG1),IC50 (recombinant human ARG2),"microglia-induced invasion of U87-MG cells (U87-MG glioma cells; 11 µM, co-culture with BV2, 18 h)","concentration dependence of the inhibitory effect on glioma invasion (U87-MG glioma cells; 0.1 and 11 µM, U87-MG with BV2)",microglia-induced invasion of LN18 cells (LN18 glioma cells)
C[C@H](N)C(=O)N1C[C@H](CCCB(O)O)[C@](N)(C(=O)O)C1 [CB-1158],blocked,reduced tumor growth,,,,,
"NC(CCCCB(O)O)(CCNCCCc1ccc(Cl)cc1Cl)C(=O)O (stereo not drawn) [OAT-90, 2-amino-6-borono-2-(2-(3-(2,4-dichlorophenyl)propyloamino)ethyl) hexanoic acid, reference compound]",,,151 nM,796 nM,effectively reduced glioma invasion,this dependence was not observed,effectively reduced glioma invasion
"N[C@@H](CCCCB(O)O)C(=O)O [Ref.comp. 1, ABH]",,,1080 nM,2670 nM,,,
